In paper PMC11187260, “Unraveling the interconversion pharmacokinetics and oral bioavailability of the major ginger constituents: [6]-gingerol, [6]-shogaol, and zingerone after single-dose administration in rats” (Frontiers in Pharmacology, 2024):
Read-outs that look alike come from different tables or passages of the source.

Legend:
[1] = Safety evaluation: physical appearance and blood chemistry after single i.v. or p.o. dose; assay type: in vivo, Female Sprague Dawley rats; conditions: for ALP / ALT / AST / BUN / Creatinine: post-dose (24 h), mean ± SD n=6; for Physical appearance: post-dose
Procedure: (§1) This study is composed of two sections; the first section involves an investigation of the interconversion pharmacokinetics of the pure compounds, and the second focuses on tissue distribution. All rats were transferred to metabolic cages and fasted overnight for at least 10 h. The animals were then randomly divided into four groups (6 rats/group) to receive a single intravenous (i.v.) administration of either 6G, 6S, zingerone, or vehicle via the lateral tail vein at a dosage of 3 mg/kg. After a 7-week washout period, the rats received 30 mg/kg of the same test compounds through a single oral (p.o.) administration. Following each administration, blood samples (300 µL) were collected in heparinized tubes from the lateral tail vein (while rats were under anesthesia with isoflurane) at specified time points: 0.083, 0.25, 0.5, 1, 1.5, 2, 3, 4, 6, 8, and 24 h after administration. An additional 1 mL of blood sample was collected from each rat at pre-dose (0 h) and post-dose (24 h) for clinical laboratory testing and safety evaluation. All heparinized blood samples were initially centrifuged at 5,000 × g, 4 °C, for 10 min. Subsequently, the plasma was carefully transferred to a cryotube as an aliquot sample and then stored at −40 °C until analysis. Urine and feces were collected during the intervals of 0–24 h and 24–48 h post-dosing, and their weights and volumes were documented. All collected urine and feces samples were stored at −40 °C until analysis.
Plasma samples were collected at baseline (T0) and T24 h for the determination of blood chemistry, including levels of blood urea nitrogen (BUN), creatinine, aspartate transaminase (AST), alanine transaminase (ALT), and alkaline phosphatase (ALP). The analyses were conducted by the Exclusive Veterinary Professional Laboratory Center (Bangkok, Thailand). The creatinine level was determined using an enzymatic oxidase assay, while AST and ALT levels were determined using the procedure of the International Federation of Clinical Chemistry (IFCC) without pyridoxal phosphate activation.

[2] = Pharmacokinetics and oral bioavailability after single oral administration (30 mg/kg), plasma LC-MS/MS; assay type: in vivo, Female Sprague Dawley rats; conditions: for bioavailability / AUC(0-inf) / AUC(0-t) / Tmax: plasma, 30 mg/kg; for AUC(0-t): read-out: AUC(0-t); for Tmax: median [IQR]; for presence of parent compound in plasma: following oral administration
Procedure: as §1
Plasma samples were processed through protein precipitation. In brief, 50 µL of plasma was mixed with 200 µL of methanol containing 50 ng/mL of IS (dihydrocapsaicin). The mixtures were vortexed and centrifuged at 14,000 × g at 4 °C for 10 min. The supernatant was filtered through a […] PVDF membrane (Chrome Tech, MN, USA) before analysis.
(§2) Investigation of glucuronide conjugations followed a previously published method with some modification ([Wang et al., 2017]; [Songvut et al., 2023]). A 50 μL aliquot of plasma, urine, or feces sample was incubated at 37 °C for a minimum of 30 min with 50 μL of β-glucuronidase (3,000 U/mL) in a sodium phosphate buffer (pH 6.8). For sample extraction, 150 μL of methanol containing 50 μg/L of IS was pipetted into the pre-incubated samples. Subsequently, the mixtures were vortexed for 10 min and then centrifuged at 14,000 × g at 4 °C for 10 min. The supernatants were filtered through a […] PVDF membrane (Chrome Tech, MN, United States) and then analyzed using the validated LC-MS/MS method.
Quantitative analysis was conducted using liquid chromatography-tandem mass spectrometry (LC-MS/MS) with a Nexera X2 LCMS-8060NX instrument (Shimadzu, Japan). The instrument included a CBM-40lite system controller, CTO-40C column oven, SIL-40C XR autosampler, LC-40D XR solvent pump unit, FCV-DGU-403 degasser, and 20AH2 switching valve. The LC-MS/MS system was operated with a binary pump and equipped with a triple quadrupole mass spectrometer.
Pharmacokinetic parameters were assessed using PK Solutions software (version 2.0) with non-compartmental analysis. The AUC was calculated using the Linear-Log Trapezoidal Method. The maximum plasma concentration (Cmax) and time to reach maximum plasma concentration (Tmax) were taken directly from the graph.
(§3) Plasma concentration-time profiles were plotted using GraphPad Prism 9.3.0 (GraphPad Software, USA). The absolute oral bioavailability was calculated as follows: F = (AUC p.o./dose p.o.)/(AUC i.v./dose i.v.). The percentage recovery of each administered compound was calculated as the total amount of the drug found in urine or feces divided by the administered dose. The tissue-to-plasma concentration ratios (K p) were calculated by dividing the concentration in the tissue by the corresponding plasma concentration at the respective sampling time point.

[3] = Percent recovery in urine and feces after intravenous or oral administration; assay type: in vivo, Female Sprague Dawley rats; conditions: for parent compound recovered in urine: during 24–48 h; for dose excreted: female, Sprague Dawley, rat, % of administered dose; for unchanged form in fecal excretion: within 48 h after intravenous or oral administration
Procedure: as §1
(§4) Urine samples were centrifuged, and 50 µL of urine was extracted with 200 µL of 100% methanol. The mixture was vortexed for 10 min and subsequently centrifuged at 14,000 × g at 4 °C for 10 min. Feces and organs were weighed and homogenized with methanol (50:50% w/v). The supernatants of the extracted urine, feces, and organs were also filtered through a […] PVDF membrane (Chrome Tech, MN, USA) before analysis.
as §2, §3

[4] = Tissue distribution after single oral administration (30 mg/kg); assay type: in vivo; conditions: 1–2 h after oral 30 mg/kg
Procedure: Tissue distribution analysis was carried out after a 7-week washout period following the completion of the pharmacokinetic study. The animals received a single oral administration of either 6G, 6S, zingerone, or vehicle at a dosage of 30 mg/kg. Euthanasia was performed using an overdose of isoflurane (>10%) in an induction chamber, either one or 2 h after oral gavage (3 rats/timepoint), and death was confirmed by exsanguination. Subsequently, the stomach, small intestine, liver, large intestine, kidneys, heart, lung, hippocampus, cortex, spleen, ovaries, and spinal cord were collected. The dissected organs were thoroughly cleaned with a cold normal saline solution and the connective tissue was removed. The organs were then precisely weighed before being stored at −40 °C. All processes during tissue collection were performed on ice.
as §4, §3

[5] = female, Sprague-Dawley, rat, po, p.o. 30 mg/kg vs i.v. 3 mg/kg of the pure compound, mean ± SD n=6, read-out: %Oral bioavailability
[6] = female, Sprague-Dawley, rat, po, p.o. 30 mg/kg vs i.v. 3 mg/kg of the pure compound, range among rats, read-out: %Oral bioavailability (range)
[7] = female, Sprague-Dawley, rat, po, p.o. 30 mg/kg vs i.v. 3 mg/kg, pure compounds, read-out: absolute oral bioavailability (upper bound)
[8] = female, Sprague-Dawley, rat, po, plasma analyte after [6]-gingerol p.o. 30 mg/kg, mean ± SD n=6
[9] = female, Sprague-Dawley, rat, po, plasma analyte after [6]-gingerol p.o. 30 mg/kg
[10] = feces, iv, 3 mg/kg, intravenous administration 3 mg/kg of parent compound, read-out: % Recovery excretion, feces T 0–24 h
[11] = feces, po, 30 mg/kg, oral administration 30 mg/kg of parent compound, read-out: % Recovery excretion, feces T 0–24 h
[12] = feces, po, 30 mg/kg, oral administration 30 mg/kg of parent compound, read-out: % Recovery excretion, feces T 24–48 h
[13] = urine, iv, 3 mg/kg, intravenous administration 3 mg/kg of parent compound, read-out: % Recovery excretion, urine T 0–24 h
[14] = urine, iv, 3 mg/kg, intravenous administration 3 mg/kg of parent compound, read-out: % Recovery excretion, urine T 24–48 h
[15] = urine, po, 30 mg/kg, oral administration 30 mg/kg of parent compound, read-out: % Recovery excretion, urine T 0–24 h
[16] = urine, po, 30 mg/kg, oral administration 30 mg/kg of parent compound, read-out: % Recovery excretion, urine T 24–48 h
[17] = female, Sprague-Dawley, rat, po, plasma analyte after [6]-shogaol p.o. 30 mg/kg, mean ± SD n=6

CCCCC[C@H](O)CC(=O)CCc1ccc(O)c(OC)c1 [[6]-gingerol]
ALP ([1]; i.v. 3 mg/kg): 44.67 ± 7.09 U/L
ALT ([1]; i.v. 3 mg/kg): 20.33 ± 2.42 U/L
AST ([1]; i.v. 3 mg/kg): 65.83 ± 19.66 U/L
BUN ([1]; i.v. 3 mg/kg): 12.83 ± 2.64 mg/dL
Creatinine ([1]; i.v. 3 mg/kg): 0.73 ± 0.04 mg/dL
ALP ([1]; p.o. 30 mg/kg): 32.67 ± 7.45 U/L
ALT ([1]; p.o. 30 mg/kg): 21.23 ± 2.44 U/L
AST ([1]; p.o. 30 mg/kg): 60.50 ± 7.12 U/L
BUN ([1]; p.o. 30 mg/kg): 12.17 ± 2.86 mg/dL
Creatinine ([1]; p.o. 30 mg/kg): 0.66 ± 0.03 mg/dL
Physical appearance ([1]; i.v. 3 mg/kg): Normal
Physical appearance ([1]; p.o. 30 mg/kg): Normal
plasma level of converted product ([2]; after oral administration of 6S 30 mg/kg): undetectable
bioavailability [2, 5]: 0.17 ± 0.11%
bioavailability [2, 6]: 0.1 to 0.4%
bioavailability [2, 7]: < 2%
AUC(0-inf) [2, 8]: 92.1 ± 26.9 ng·h/mL
AUC(0-t) [2, 8]: 92.1 ± 26.9 ng·h/mL
Tmax [2, 9]: 4.8 min
presence of parent compound in plasma [2]: up to 4 h
time to detectable plasma levels ([2]; oral administration of pure compound): ≤ 5 min
time to reach peak plasma concentration (Cmax) ([2]; parent compound after oral administration 30 mg/kg): 5 to 45 min
parent compound recovered in urine [3]: less than 1%
dose excreted [3, 10]: 0.005 ± 0.002%
dose excreted ([3]; feces, iv, 3 mg/kg, intravenous administration 3 mg/kg of parent compound, read-out: % Recovery excretion, feces T 24–48 h): 0.005 ± 0.001%
dose excreted [3, 11]: 0.001 ± 0.001%
dose excreted [3, 12]: < 0.001%
dose excreted [3, 13]: 0.623 ± 0.706%
dose excreted [3, 14]: 0.008 ± 0.005%
dose excreted [3, 15]: 0.1 ± 0.102%
dose excreted [3, 16]: 0.002 ± 0.001%
unchanged form in fecal excretion [3]: < 0.1%

CCCCC/C=C/C(=O)CCc1ccc(O)c(OC)c1 [[6]-shogaol]
ALP ([1]; i.v. 3 mg/kg): 49.50 ± 14.46 U/L
ALT ([1]; i.v. 3 mg/kg): 18.83 ± 3.92 U/L
AST ([1]; i.v. 3 mg/kg): 59.50 ± 5.61 U/L
BUN ([1]; i.v. 3 mg/kg): 14.17 ± 1.72 mg/dL
Creatinine ([1]; i.v. 3 mg/kg): 0.73 ± 0.02 mg/dL
ALP ([1]; p.o. 30 mg/kg): 39.17 ± 11.20 U/L
ALT ([1]; p.o. 30 mg/kg): 22.50 ± 5.89 U/L
AST ([1]; p.o. 30 mg/kg): 63.83 ± 11.77 U/L
BUN ([1]; p.o. 30 mg/kg): 14.00 ± 2.00 mg/dL
Creatinine ([1]; p.o. 30 mg/kg): 0.71 ± 0.02 mg/dL
Physical appearance ([1]; i.v. 3 mg/kg): Normal
Physical appearance ([1]; p.o. 30 mg/kg): Normal
Tolerability ([1]; single i.v. 3 mg/kg or p.o. 30 mg/kg): exhibited tolerance
bioavailability [2, 5]: 0.15 ± 0.1%
bioavailability [2, 6]: 0.1 to 0.31%
bioavailability [2, 7]: < 2%
AUC(0-inf) [2, 8]: 10.3 ± 4.14 ng·h/mL
AUC(0-t) [2, 8]: 10.2 ± 4.01 ng·h/mL
Tmax [2, 9]: 15 min
AUC(0-inf) [2, 17]: 66.9 ± 30.5 ng·h/mL
AUC(0-t) [2, 17]: 66.9 ± 30.5 ng·h/mL
Tmax ([2]; female, Sprague-Dawley, rat, po, plasma analyte after [6]-shogaol p.o. 30 mg/kg): 45 min
Cmax [2, 17]: 51.8 ± 20.9 ng/mL
presence of parent compound in plasma [2]: up to 4 h
parent compound recovered in urine [3]: less than 1%
dose excreted [3, 10]: < 0.001%
dose excreted [3, 11]: 0.001 ± 0.001%
dose excreted [3, 12]: 0.002 ± 0.002%
dose excreted [3, 13]: 0.003 ± 0.002%
dose excreted [3, 14]: < 0.001%
dose excreted [3, 15]: 0.001 ± 0.001%
dose excreted [3, 16]: < 0.001%
unchanged form in fecal excretion [3]: < 0.1%
distribution to brain regions (hippocampus and cortex) [4]: lacking presence in key brain regions
